Reference: article PMC8343220, “The selectivity of α‐adrenoceptor agonists for the human α1A, α1B, and α1D‐adrenoceptors” (Pharmacology Research & Perspectives, 2021)

Tests used:
[1] = target: T1, human α1D‐adrenoceptor (full length) (Homo sapiens, UniProt P25100); assay: ERK1/2‐phosphorylation (Surefire Alphascreen), CHO‐α1D cells; format: cell-based; details: CHO‐α1D cells; for ERK1/2‐phosphorylation % PDBu: maximal response as % of PDBu
T1 construct: human α1D‐adrenoceptor (full length) were used; expressed in transfected cells; host or cells: CHO-K1
T1 sequence (P25100 1-572): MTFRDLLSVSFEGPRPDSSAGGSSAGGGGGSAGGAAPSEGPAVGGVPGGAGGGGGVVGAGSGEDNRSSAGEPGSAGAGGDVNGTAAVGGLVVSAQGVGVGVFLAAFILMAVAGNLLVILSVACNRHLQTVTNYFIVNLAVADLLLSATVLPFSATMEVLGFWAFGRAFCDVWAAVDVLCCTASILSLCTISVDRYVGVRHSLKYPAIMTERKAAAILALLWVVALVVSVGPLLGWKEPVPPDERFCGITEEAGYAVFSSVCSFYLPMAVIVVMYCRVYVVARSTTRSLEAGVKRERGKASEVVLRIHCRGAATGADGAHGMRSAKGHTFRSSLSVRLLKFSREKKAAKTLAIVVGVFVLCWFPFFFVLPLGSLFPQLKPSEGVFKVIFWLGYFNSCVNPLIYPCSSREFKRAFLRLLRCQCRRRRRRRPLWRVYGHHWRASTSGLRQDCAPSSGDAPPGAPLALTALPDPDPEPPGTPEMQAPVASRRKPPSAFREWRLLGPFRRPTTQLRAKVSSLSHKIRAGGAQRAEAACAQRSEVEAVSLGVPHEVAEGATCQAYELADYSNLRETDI

[2] = target: T2, human α1B‐adrenoceptor (Homo sapiens, UniProt P35368); assay: Intracellular free calcium mobilization, CHO‐α1B cells; format: cell-based; details: CHO‐α1B cells; for Intracellular calcium release % Ionomycin at 100 µM: response at 100 µM ligand (no EC50 given), % of ionomycin response
T2 construct: expressed in transfected cells; host or cells: CHO-K1
T2 sequence (P35368 1-520): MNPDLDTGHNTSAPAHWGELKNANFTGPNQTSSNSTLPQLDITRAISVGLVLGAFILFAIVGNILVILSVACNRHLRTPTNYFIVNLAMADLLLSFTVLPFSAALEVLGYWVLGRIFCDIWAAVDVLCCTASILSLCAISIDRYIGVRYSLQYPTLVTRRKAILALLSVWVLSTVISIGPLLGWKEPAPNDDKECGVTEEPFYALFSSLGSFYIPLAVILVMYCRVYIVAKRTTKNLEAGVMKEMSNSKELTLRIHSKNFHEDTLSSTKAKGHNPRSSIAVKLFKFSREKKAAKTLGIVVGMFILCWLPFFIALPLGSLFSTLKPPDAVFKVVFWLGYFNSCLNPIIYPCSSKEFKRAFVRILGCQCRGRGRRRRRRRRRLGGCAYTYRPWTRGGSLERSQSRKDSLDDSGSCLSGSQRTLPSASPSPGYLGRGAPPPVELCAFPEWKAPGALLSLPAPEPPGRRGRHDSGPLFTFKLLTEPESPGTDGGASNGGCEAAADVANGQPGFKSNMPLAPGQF

[3] = target: T3, human α1A‐adrenoceptor (Homo sapiens, UniProt P35348); assay: ^3H‐cAMP accumulation, CHO‐α1A cells; format: cell-based; details: CHO‐α1A cells; for cAMP accumulation Log EC50: 5 h; for cAMP accumulation % forskolin: % of 10 µM forskolin response
T3 construct: expressed in transfected cells; host or cells: CHO-K1
T3 sequence (P35348 1-466): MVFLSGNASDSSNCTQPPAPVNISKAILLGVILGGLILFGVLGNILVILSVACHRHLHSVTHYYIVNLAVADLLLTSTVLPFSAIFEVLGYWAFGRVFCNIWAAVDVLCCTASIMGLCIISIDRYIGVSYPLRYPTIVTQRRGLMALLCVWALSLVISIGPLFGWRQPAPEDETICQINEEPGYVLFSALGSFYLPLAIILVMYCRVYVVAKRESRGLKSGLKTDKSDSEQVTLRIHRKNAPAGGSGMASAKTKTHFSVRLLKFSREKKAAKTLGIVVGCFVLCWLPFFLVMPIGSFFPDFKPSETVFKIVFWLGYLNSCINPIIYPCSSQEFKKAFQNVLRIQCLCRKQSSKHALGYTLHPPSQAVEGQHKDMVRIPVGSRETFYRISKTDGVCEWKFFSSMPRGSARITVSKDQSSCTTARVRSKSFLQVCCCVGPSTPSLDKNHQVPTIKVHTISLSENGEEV

[4] = target: T1, human α1D‐adrenoceptor (full length); details: CHO‐α1D cells; ligands marked ^a; ref Proudman et al., 2020; cited from earlier work
[5] = target: T1, human α1D‐adrenoceptor (full length); assay: Intracellular free calcium mobilization, CHO‐α1D cells; format: cell-based; details: CHO‐α1D cells; for Intracellular calcium release % ionomycin: maximal response as % of 10 µM ionomycin
[6] = target: T3, human α1A‐adrenoceptor; assay: ERK1/2‐phosphorylation (Surefire Alphascreen), CHO‐α1A cells; format: cell-based; details: CHO‐α1A cells, ^a bi‐phasic: initial stimulatory part; for ERK1/2‐phosphorylation % PDBu: % of 10 µM PDBu
[7] = target: T3, human α1A‐adrenoceptor; details: CHO‐α1A cells; given as log KD (negative); ligands marked ^a; ref Proudman et al., 2020; cited from earlier work
[8] = target: T2, human α1B‐adrenoceptor; assay: ERK1/2‐phosphorylation (Surefire Alphascreen), CHO‐α1B cells; format: cell-based; details: CHO‐α1B cells; for ERK1/2‐phosphorylation % PDBu: maximal response as % PDBu response, for bi‐phasic responses the initial stimulatory part
[9] = target: T3, human α1A‐adrenoceptor; assay: Intracellular free calcium mobilization, CHO‐α1A cells; format: cell-based; details: CHO‐α1A cells; for Intracellular calcium release Log EC50: given as log EC50 (negative); for Intracellular calcium release % ionomycin: maximal response as % of 10 µM ionomycin
[10] = target: T3, human α1A‐adrenoceptor; assay: ^3H‐cAMP accumulation in the presence of 10 μM forskolin, CHO‐α1A cells; format: cell-based; details: CHO‐α1A cells; for cAMP accumulation (in presence of forskolin) Log EC50: 10 μM forskolin
[11] = target: T2, human α1B‐adrenoceptor; details: CHO‐α1B cells; given as log KD (negative); ligands marked ^a; ref Proudman et al., 2020; cited from earlier work
[12] = tested on: parental CHO cell line without any transfected receptors; assay: Forskolin‐stimulated cAMP accumulation, parent CHO cells without transfected receptors; format: cell-based, Chinese hamster; details: CHO cells without transfected receptors
[13] = tested on: parental CHO cell line without any transfected receptors; assay: ERK1/2‐phosphorylation, parent CHO cells without transfected receptors; format: cell-based, Chinese hamster; details: CHO cells without transfected receptors
[14] = target: T1, human α1D‐adrenoceptor (full length); assay: ^3H‐prazosin whole‐cell radioligand binding, CHO‐α1D cells
[15] = target: T3, human α1A‐adrenoceptor; assay: ^3H‐prazosin whole‐cell radioligand binding, CHO‐α1A cells; details: higher affinity for α1A than α1B
[16] = response at 100 µM ligand (no EC50 given)

Row | SMILES | ERK1/2‐phosphorylation % PDBu [1] | Intracellular calcium release % Ionomycin at 100 µM [2] [%] | cAMP accumulation Log EC50 [3] | cAMP accumulation % forskolin [3] | % site 1 (% of the response at the first component), α1D two‐component binding curve [4] [%] | Intracellular calcium release % ionomycin [5] | ERK1/2‐phosphorylation % PDBu [6] [%] | Log KD α1A, ^3H‐prazosin whole cell binding [7] | ERK1/2‐phosphorylation % PDBu [8] | Intracellular calcium release Log EC50 [9] | Intracellular calcium release % ionomycin [9] [%] | cAMP accumulation (in presence of forskolin) Log EC50 [10] | Log KD α1B, ^3H‐prazosin whole cell binding [11] | other results
1 | COc1ccccc1N1CCN(CC2CN3C(=O)N(C)c4ccccc4C3=N2)CC1 (stereo not shown) [2‐MPMDQ] | No response | 3.1 ± 1.5 | No response | No response | 64.0 ± 2.1 | No response | 13.6 ± 3.7 | −9.06 ± 0.07 | No response | −7.69 ± 0.08 | 19.7 ± 2.0 | No response | −7.37 ± 0.04 | 
2 | O=C1Nc2ccccc2C2=NC(CN3CCN(c4ccccc4)CC3)CN12 (stereo not shown) [2‐PMDQ] | No response |  | No response | No response | 57.6 ± 2.8 | No response | 10.4 ± 3.4 | −8.19 ± 0.09 |  | −7.63 ± 0.13 | 16.6 ± 1.8 | No response | −6.95 ± 0.05 | Intracellular calcium release Log EC50 ([2]; given as log EC50 (negative numbers)): No response; Intracellular calcium release % ionomycin ([2]; maximal response as % of 10 µM ionomycin response): No response
3 | COc1ccccc1N1CCN(CCN2C(=O)c3ccccc3C(C)(C)C2=O)CC1 [ARC239] | No response | 4.8 ± 1.7 | −8.41 ± 0.23 | 1.2 ± 0.2% | 60.5 ± 1.4 | No response | 29.2 ± 3.8 | −9.35 ± 0.08 | No response | −7.99 ± 0.19 | 20.8 ± 2.0 |  | −8.15 ± 0.07 | cAMP accumulation (in presence of forskolin) Log EC50 ([12]; in presence of forskolin): No response; ERK1/2-phosphorylation % PDBu ([13]; maximal response as % of PDBu (10μM) response, mean ± s.e.m.): No response
4 | CC1c2ccccc2CN1CC1=NCCN1 (stereo not shown) [BRL44408] |  | 13.7 ± 6.5 | −6.27 ± 0.17 | 4.7 ± 0.5% |  |  | 77.4 ± 4.1 | −5.92 ± 0.09 |  | −7.24 ± 0.10 | 36.5 ± 5.4 | −6.43 ± 0.09 | −4.68 ± 0.07 | ERK1/2‐phosphorylation % PDBu at 100 µM [1, 16]: 47.4 ± 5.7%; cAMP accumulation (in presence of forskolin) % forskolin-stim cAMP at 100μM ([12]; response at 100μM only, EC50 not obtainable, % of forskolin-stimulated cAMP): 77.6 ± 2.3%; 3H‐prazosin binding Log KD ([14]; CHO‐α1D cells, whole‐cell binding (from Table 1), log values given negative): −5.06; Affinity selectivity ratio α1B vs α1D ([14]; higher affinity for α1D than α1B): 2.4 fold; Affinity selectivity ratio α1A vs α1B [15]: 17.4 fold; Log KD α1D, ^3H‐prazosin whole cell binding (single site or first, higher affinity component) [4]: −5.06 ± 0.05; Intracellular calcium release % Ionomycin at 100 µM [5, 16]: 4.5 ± 2.1%; ERK1/2‐phosphorylation Log EC50 ([6]; 2–4 min, ^b also active in parent CHO cells): −7.03 ± 0.14; ERK1/2-phosphorylation % PDBu at 100μM ([13]; response at 100μM only, EC50 not obtainable, % of PDBu (10μM)): 17.6 ± 8.1%; ERK1/2‐phosphorylation % PDBu at 100 µM [8, 16]: 47.0 ± 7.0%; Log efficacy ratio KD /EC50 ([9]; binding KD and calcium EC50): 1.32; cAMP accumulation (in presence of forskolin) Fold increase ([10]; fold increase of the forskolin response): 1.62 ± 0.08 fold
